Entries after “also recorded” stand apart in the source; their conditions may differ. Where two headings read alike, the source gives them in different places. One block for each compound: values may come before it.
Legend:
[1] = biological target: T1, Aβ(1-40) (Homo sapiens, UniProt P05067); test: Inhibition of Aβ(1-40) beta-pleated sheet formation (Thioflavin T fluorescence); assay type: biochemical; settings: compound 10 μM, 12 hours
T1 construct: particularly the aggregated fibrils of synthetic Aβ(1-40)
Description: The deposition of amyloid β-peptide (Aβ) is associated with the development of Alzheimer's disease. See, for example, G. G. Glenner et al. (1984) Biochem. Biophys. Res. Commun., 120:885-890; and R. E. Tanzi (1989) Ann. Med., 21:91-94. Accordingly, compounds which effectively disrupt the formation of Aβ(1-40) or Aβ(1-42) beta-pleated sheets are potentially useful for preventing and/or reversing such amyloid deposits. Thioflavin T (ThT) is known to rapidly associate with beta-pleated sheets, particularly the aggregated fibrils of synthetic Aβ(1-40). This association gives rise to a new excitation maximum at 440 nm and to enhanced emission at 490 nm.
The experiments are performed using a CytoFluor II fluorescence plate reader having the following parameters: Filters (Excitation and Emission)=440 nm/20 and 490 nm/40; Gain=75; Cycle to Cycle Time=30 min; Run Time=720 min (24 cycles) or dependent on exp. design; Plate=96 well. […] The fluorescence measurement begins when the Aβ(1-40) is added and continues for a total of 12 hours. The percent inhibition of beta-pleated sheet formation is calculated from the relative fluorescence unit difference between aggregation in the presence and in the absence of the test compounds.

[2] = test system: IMR90 cells; test: Replicative life span of IMR90 cells (gain in PDLs, delay of senescence); assay type: cell-based, human; settings: for Toxicity to the cells: high concentrations (100 μM); for Gain in PDLs: continuous cultivation, compared to control untreated cells
Description: Cultivating IMR90 cells in culture—Normal human […] fibroblasts (IMR90) cells were obtained from the Coriell Institute for Medical Research at a population doubling level (PDL) of 10.85. The PDLs were calculated as log2(D/Do), where D and Do are defined as the density of cells at the time of harvesting and seeding, respectively. Stock cultures were grown in 100 mm Corning tissue culture dishes containing 10 ml of Dulbecco's modified Eagle's medium (DMEM) supplemented with 10% (V/V) fetal bovine serum (Hyclone). Stock cultures were split once a week when near confluence. Cells were harvested by trypsinization for 5 min at 37° C., immediately collected in 5 ml complete DMEM, washed once with 5 ml complete DMEM and incubated for 10-15 min at 37° C. to allow the cells to recover.
To test the effect of hydroxylamines on replicative life span, IMR90 cells were seeded at 0.5×106 per 100 mm dish. N-hydroxylamines (N-t-butyl hydroxylamine, N-benzyl hydroxylamine, N-methyl hydroxyl- amine) were added either individually (final concentration 10 or 100 μM) or in a combination of all three N-hydroxylamines (30 μM each). The cultures were split after 7 days and seeded with fresh medium supplemented with the hydroxylamines described above. In other experiments the medium of the cultures was replaced after 3 days of seeding with fresh medium and with fresh N-hydroxylamines, the split was done as usual after 7 days from seeding. The effect of PBN on life span was tested as in (5).

[3] = test system: IMR90 cells; test: as above; assay type: cell-based, human; settings: 25 μM
[4] = mice; cited from earlier work
[5] = test system: IMR90 cells; test: Steady state level of oxidants in IMR90 cells, DCFH oxidation by FACS; assay type: cell-based, human; settings: for DCFH, AFU/PDL (rate of DCFH oxidation per PDL): 100 μM, linear regression 26-50 PDLs; for Percent of decrease in the rate of oxidants formation from control: DCFH oxidation, continuous treatment
Description: (§1) Analysis of the age-dependent changes in the steady state level of oxidants and mitochondrial membrane potential in IMR90 cells by FACS—[…] were trypsinized and resuspended into complete DMEM. For each condition, two tubes were prepared with 1×10^6 cells each. Tubes were then spun at 250 g for 10 min at room temperature and supernatant was replaced with 1 ml of Hanks Balanced Salt Solution (HBSS) without Ca^++ or Mg^++. Rho123 (20 μl of 525 μM stock; 10.5 μM final concentration) was added to one tube and DCFH (20 μl of 1.25 mM stock; 25 μM final concentration) was added to the other tube. The cells were then incubated in the dark in a water bath at 37° C. for 30 min followed by cell resuspension and centrifugation at 250 g for 10 min at room temperature. The supernatant (500 μl) was removed from each tube and the cells were resuspended in the remaining 500 μl before FACS analysis on a FACSort analyzer (Becton Dickinson, San Jose, Calif.). Cell Quest was used for data acquisition and analysis. The data is reported as the mean of the channel of the fluorescence histogram obtained. Fluorescence output was calibrated with LinearFlow Green Flow cytometry Intensity Calibration Particles (Molecular Probes, Eugene, Oreg.).

[6] = test system: IMR90 cells; test: Senescence-dependent change in mitochondria of IMR90 cells, Rho123 accumulation by FACS; assay type: cell-based, human; settings: for Rho123, AFU/PDL (rate of Rho123 accumulation per PDL): 100 μM, linear regression 26-50 PDLs; for Decrease of the rate of Rho123 accumulation as a function of senescence: vs control
Description: as §1

[7] = test system: IMR90 cells; test: H2O2-induced senescence of IMR90 cells; assay type: cell-based, human; settings: 20 μM or 30 μM H2O2 once a week, cells continuously treated
Description: To determine the effect of H2O2 on the replicative life span, cells were first seeded with fresh medium with or without N-hydroxylamines (see above) for a week. Next, cells grown with or without N-hydroxylamines were each split into two additional groups and then either; 1) treated with 20 or 30 μM H2O2 or 2) without treatment with H2O2.

[8] = test system: IMR90 cells; test: Cellular levels of GSH and GSSG in IMR90 cells (HPLC-EC); assay type: cell-based, human; settings: for GSH / GSH/GSSG / GSSG: 100 μM, 26-50 PDLs; for Increase of the GSH/GSSG ratio: vs control
Description: Measurement of cellular levels of GSH and GSSG in IMR90 cells—Cultivated IMR90 cells (≈3×10^6) were washed once in cold PBS and resuspended in 200 μl of ice cold MSA (0.2M MSA/0.5mM diethylenetriamine pentaacetic acid, DTPA) and allowed to stand for 10 min at room temperature. Denatured proteins were removed by centrifugation and the supernatant was filtered with 30,000 D MW cut-off Ultrafree filters (Millipore) before injection. Fifty microliters were injected and separated on an HPLC column (3-μm 0.46×15cm Suplecosil LC18-DB, Supelco, Bellefonte, Pa.) with a flow rate of 1 ml/min using a mobile phase consisting of 25mM NaH2PO4, 5 mM octane sulfonic acid, and 2% acetonitrile, adjusted to pH 2.7 with phosphoric acid (26). An ESA model 5100A Coulochem detector, 5020 guard cell and model 5010 analytical cell combination was used for analysis. Oxidation potentials of 900 mV, 400 mV and 880 mV were used for guard cell, electrode 1 and 2, respectively. Full-scale output was 10 μA and peak areas were compared using commercial GSH and GSSG as standards.

[9] = Auto-oxidation in a cell free system; assay type: physicochemical
[10] = test system: cytochrome c; test: Auto-oxidation of cyt c^II and direct reduction of cytochrome c by N-hydroxylamines; assay type: biochemical
Description: In order to test the effect of N-hydroxylamines on the spontaneous oxidation of cytochrome c, a complete reduction of cyt c^III was achieved by incubating the X/XO system for 4-5 min at 25° C. Auto-oxidation of cyt c^II is associated with a decrease in absorbance at 550 nm. Reduced cytochrome c was incubated at 25° C. with or without 2 or 3 mM N-hydroxylamines and the auto-oxidation was followed by spectrophotometer. The rate of reduction of cytochrome c by different concentrations of each N-hydroxylamine was measured by the increase in absorbance at 550 nm.

[11] = test system: IMR90 cells; test: Entry and concentration of N-t-butyl hydroxylamine in cells; assay type: in vitro ADME, human
[12] = in vivo; settings: male, C57BL/6J and DBA/2J, mouse, in vivo
Description: C57BL/6J and DBA/2J male mice (35-40 g) are tested for the acute lethal effects of adriamycin and the prevention of acute lethality by pretreatment doses of subject hydroxylamines. Mice are injected i.p with either saline or subject hydroxylamines 30 minutes prior to administration of adriamycin.

T1 sequence (P05067 672-711 limits assumed): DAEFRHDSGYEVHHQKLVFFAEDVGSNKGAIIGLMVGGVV

Compound: CC(C)NO [Example 1, N-Isopropylhydroxylamine]
- Inhibition of Aβ(1-40) beta-pleated sheet formation [1]: inhibit

- Inhibition of Aβ(1-40) beta-pleated sheet formation [1]: inhibit
Compound: ONC1CCCCC1 [Example 3, N-Cyclohexylhydroxylamine]

Compound: CC1(C)CC(O)CC(C)(C)N1[O] [Example 4-OH-TEMPO, 4-hydroxy-2,2,6,6-tetramethylpiperidine-1-oxyl]
- Delay of senescence of IMR90 cells (in words) [2]: none
- Toxicity to the cells [2]: toxic
- Delay of replicative senescence [3]: did not delay the replicative senescence

Compound: NO [HNHOH, hydroxylamine]
- Anticancer activity [4]: possesses anticancer activity
- Senescence [4]: delayed senescence

Compound: ONCc1ccccc1 [NBHA, N-benzyl hydroxylamine]
- DCFH, AFU/PDL (rate of DCFH oxidation per PDL) [5]: 0.11 (0.08) AFU/PDL
- Percent of decrease in the rate of oxidants formation from control [5]: 95%
- Delay of senescence of IMR90 cells (in words) [2]: active; also recorded: able to delay the senescence
- Rho123, AFU/PDL (rate of Rho123 accumulation per PDL) [6]: 9.7 (0.86) AFU/PDL
- Decrease of the rate of Rho123 accumulation as a function of senescence [6]: 69%
- H2O2-induced senescence [7]: attenuated
- GSH [8]: 48.4 ± 3.4
- GSH/GSSG [8]: 134.4
- GSSG [8]: 0.36 ± 0.015
- Increase of the GSH/GSSG ratio [8]: 90.4%

Compound: CNO [NMHA, N-methyl hydroxylamine]
- DCFH, AFU/PDL (rate of DCFH oxidation per PDL) [5]: 0.45 (0.3) AFU/PDL
- Percent of decrease in the rate of oxidants formation from control [5]: 79%
- Delay of senescence of IMR90 cells (in words) [2]: active; also recorded: able to delay the senescence
- Rho123, AFU/PDL (rate of Rho123 accumulation per PDL) [6]: 15.3 (0.86) AFU/PDL
- Decrease of the rate of Rho123 accumulation as a function of senescence [6]: 52%
- GSH [8]: 52.15 ± 6.7
- GSH/GSSG [8]: 137.2
- GSSG [8]: 0.38 ± 0.08
- Increase of the GSH/GSSG ratio [8]: 94%

- Stability to auto-oxidation [9]: stable to auto-oxidation
- Concentration in the cells [11]: approximately 5 fold
- Entry into the cells [11]: rapidly enters the cells
Compound: CC(C)(C)NO [NtBHA, N-t-butyl hydroxylamine]
- DCFH, AFU/PDL (rate of DCFH oxidation per PDL) [5]: 0.27 (0.32) AFU/PDL
- Percent of decrease in the rate of oxidants formation from control [5]: 88%
- Delay of senescence of IMR90 cells (in words) [2]: delays senescence
- Gain in PDLs ([2]; 10 μM): 5.8 PDLs
- Gain in PDLs ([2]; 100 μM (added once per 7 days)): 19.7 PDLs
- Concentration required to delay senescence (gain in PDLs), relative to PBN ([2]; vs PBN 200 μM): 20 times lower
- Direct reduction of cyt c^III to cyt c^II [10]: somewhat less efficient
- Rho123, AFU/PDL (rate of Rho123 accumulation per PDL) [6]: 9.3 (0.85) AFU/PDL
- Decrease of the rate of Rho123 accumulation as a function of senescence [6]: 70%
- H2O2-induced senescence [7]: attenuated
- GSH [8]: 49.5 ± 5.6
- GSH/GSSG [8]: 123.8
- GSSG [8]: 0.4 ± 0.045
- Increase of the GSH/GSSG ratio [8]: 75%

Compound: NOCc1ccccc1 [O-benzyl hydroxylamine]
- Delay of senescence of IMR90 cells (in words) [2]: accelerate senescence

Compound: CON [O-methyl hydroxylamine]
- Delay of senescence of IMR90 cells (in words) [2]: accelerate senescence

Compound: CC(C)(C)ON [O-t-butyl hydroxylamine]
- Delay of senescence of IMR90 cells (in words) [2]: accelerate senescence

Compound: CC1(C)CCCC(C)(C)N1[O] [TEMPO, 2,2,6,6-tetramethyl-piperidine-1-oxyl]
- Delay of senescence of IMR90 cells (in words) [2]: none
- Toxicity to the cells [2]: toxic
- Delay of replicative senescence [3]: did not delay the replicative senescence

Compound: COc1cccc2c1C(=O)c1c(O)c3c(c(O)c1C2=O)C[C@@](O)(C(=O)CO)C[C@@H]3O[C@H]1C[C@H](N)[C@H](O)[C@H](C)O1 [adriamycin]
- Acute lethality (dose range) [12]: 10 to 30 mg/kg
- LD50 [12]: 25 mg/kg

Compound: O=C1O[C@H]([C@@H](O)CO)C(O)=C1O [ascorbic acid]
- Delay of senescence of IMR90 cells (in words) [2]: none

Compound: O=Cc1ccccc1 [benzaldehyde]
- Delay of senescence of IMR90 cells (in words) [2]: without effect or toxic at high concentrations
- Delay of senescence of IMR90 cells (in words) ([2]; listed as Benzaldehyde): without effect and in high concentrations was toxic

Compound: CC(C)(C)N=O [tNB, nitroso-tert-butane]
- Effect on IMR90 cells ([2]; 10 μM in medium): no effect

Compound: catalase
- Delay of senescence of IMR90 cells (in words) [2]: none

Compound: vitamin E
- Delay of senescence of IMR90 cells (in words) [2]: none

Source: patent US6455589B1, “Primary N-hydroxylamines” (The Regents of the University of California, priority 1999, dated 2002)
